Laboratory results: US7906486B2, “Method of treating or preventing tissue deterioration, injury or damage due to disease of mucosa” (SciClone Pharmaceuticals, Inc., priority 2007, dated 2011)
“And” between values parts separate entries of the source, which are not always exact repeats. Equal values may be shown once.

Test system: oral mucositis induced by cis-platin 5 mg/kg and radiation 35 Gy (left cheek pouch)
Test: Oral mucositis induced by a combination of cisplatin and acute radiation in hamsters, mucositis scoring (Example 4, SCI-04)
Format: in vivo, Syrian Golden Hamsters
Design: key to Mucositis score, day 6 / Mucositis score, day 8: 0: Pouch completely healthy. No erythema or vasodilation.; 1: Light to severe erythema and vasodilation. No erosion of mucosa.; 2: Severe erythema and vasodilation. Erosion of superficial aspects of mucosa leaving denuded areas. Decreased stippling of mucosa.; 3: Formation of off-white ulcers in one or more places. Ulcers may have a yellow/gray due to pseudomembrane. Cumulative size of ulcers should equal about ¼ of the pouch. Severe erythema and vasodilation.; 4: Cumulative seize of ulcers should equal about ½ of the pouch. Loss of pliability. Severe erythema and vasodilation.; 5: Virtually all of pouch is ulcerated. Loss of pliability (pouch can only partially be extracted from mouth); key to peak mean mucositis score: standard six-point oral mucositis scale; ulceration = score ≥3
Conditions: for % Days >=3 / Days <3 / Days >=3: qd, sc, Days −1 to 20; for Days >=3: animal days with mucositis score of three or more
Procedure: Forty Golden Syrian hamsters were prospectively randomized into four equally sized groups. Mucositis was induced on the left cheek pouch mucosa of golden Syrian hamsters by a single dose of cis-platin at 5 mg/kg given on day −1, and a single dose of radiation administered on day 0 at a dose of 35Gy. Beginning on day −1 and continuing once daily until day 20, SCV-07 was given by sub-cutaneous injection at doses of 10 μg/kg, 100 μg/kg or 1 mg/kg in a volume of 100 μL. Animals' activity and weight were evaluated daily. Beginning on day 6 and continuing on alternate days for the duration of the study, oral mucositis was evaluated using a standard scoring six point scale. The number of days of ulcerative mucositis was evaluated using a Chi-squared test of scores of ≧3 throughout the study, and the individual daily group scores were assessed with a Rank Sum Test.
The chemo-radiation model of oral mucositis in hamsters, developed by the Principal Investigator, has proven to be an accurate, efficient and cost-effective technique to provide a preliminary evaluation of anti-mucositis compounds. In this model, hamsters received a single dose of cis-platin at 5 mg/kg on day −1, followed by a single dose of radiation of 35 Gy to the left cheek pouch on day 0, rather than the single dose of 40 Gy on day 0 that is used in acute radiation studies. The course of mucositis in this model is very similar to the acute radiation model and results in peak mucositis scores approximately 16-18 days following radiation.
Hamsters received a single dose of cis-platin at 5 mg/kg on day −1 by intra-peritoneal injection, followed by a single dose of radiation of 35 Gy to the left cheek pouch on day 0. This was accomplished by anesthetizing the animals and everting the left buccal pouch, while protecting the rest of the animal's bodies with a lead shield. Test materials were given by sub-cutaneous injection once daily as detailed in Table 13. Mucositis was evaluated clinically starting on day 6, and continuing on alternate days until day 28. Test articles were given as from day −1 to day 20.
The grade of mucositis was scored, beginning day 6, and for every second day thereafter, through and including day 28. The effect on mucositis of each drug treatment compared to placebo was assessed according to the following parameters:
On each evaluation day, the number of animals with a blinded mucositis score of ≧3 in each drug treatment group was compared to the control group. Differences were compared on a cumulative basis and statistical significance was determined by chi-square analysis. Efficacy, in this analysis, is defined by a significant reduction in the number of days that a group of animals had ulcerations (scores 3) when compared to the control group.
For each evaluation day the scores of the control group were compared to those of the treated groups using non-parametric rank sum analysis. Treatment success was considered as a statistically significant lowering of scores in the treated group on 2 or more days from day 6 to day 28.
Forty (40) male Syrian Golden Hamsters were given an intraperitoneal injection of 5 mg/kg Cisplatin on day −1. On day 0 all animals were given an acute radiation dose of 35 Gy directed to their left buccal cheek pouch. This was accomplished by anesthetizing the animals and everting the left buccal pouch, while protecting the rest of the animals with a lead shield. Test materials were given by subcutaneous injection once daily as detailed in Table 13. Mucositis was evaluated clinically starting on Day 6, and continued on alternate days until day 28.
In this study, mucositis was induced with a combination of Cis-platin and radiation. Cis-platin was given as a single injection (IP) of 5 mg/kg on day −1. Radiation was given as a single focal dose of 35 Gy on day 0. Radiation was generated with a Philips 160 kVp (kilovolt potential) (18.75-ma) X-ray source at a focal distance of 30 cm, with a 3.0 mm hardened Al filtration system. […]

[1] = printed 100 ug/kg on days -1 to 20 (second such statement, third treated group)

N[C@H](CCC(=O)N[C@@H](Cc1c[nH]c2ccccc12)C(=O)O)C(=O)O [SCV-07, γ-D-glutamyl-L-tryptophan]
P, daily mucositis scores (Mann-Whitney rank sum) vs saline controls (10 ug/kg days -1 to 20, day 22): 0.010
P, daily mucositis scores (Mann-Whitney rank sum) vs saline controls (10 ug/kg days -1 to 20, day 24): 0.022
P, daily mucositis scores (Mann-Whitney rank sum) vs saline controls (10 ug/kg days -1 to 20, day 26): 0.015
P, daily mucositis scores (Mann-Whitney rank sum) vs saline controls (10 ug/kg days -1 to 20, day 28): < 0.001
% of animal days with a mucositis score of 3 or higher (10 ug/kg from day -1 to day 20): 34.2%
P, chi-squared test vs controls, days with score of 3 or higher (10 ug/kg from day -1 to day 20): < 0.001
day of peak mean mucositis score (10 ug/kg from day -1 to day 20): 16
peak mean mucositis score (10 ug/kg from day -1 to day 20): 2.9
% Days >=3 (10 ug/kg): 34.2%
Days <3 (10 ug/kg): 158
Days >=3 (10 ug/kg): 82
P, daily mucositis scores (Mann-Whitney rank sum) vs saline controls (100 ug/kg days -1 to 20, day 6): 0.015
P, daily mucositis scores (Mann-Whitney rank sum) vs saline controls (100 ug/kg days -1 to 20, day 22): 0.003
P, daily mucositis scores (Mann-Whitney rank sum) vs saline controls (100 ug/kg days -1 to 20, day 24): 0.005
P, daily mucositis scores (Mann-Whitney rank sum) vs saline controls (100 ug/kg days -1 to 20, day 26): < 0.001
P, daily mucositis scores (Mann-Whitney rank sum) vs saline controls (100 ug/kg days -1 to 20, day 28): < 0.001
peak mean mucositis score (100 ug/kg from day -1 to day 20): 2.8
% of animal days with a mucositis score of 3 or higher (100 ug/kg on days -1 to 20): 29.2%
P, chi-squared test vs controls, days with score of 3 or higher (100 ug/kg on days -1 to 20): < 0.001
% Days >=3 (100 ug/kg): 29.2%
Days <3 (100 ug/kg): 170
Days >=3 (100 ug/kg): 70
P, daily mucositis scores (Mann-Whitney rank sum) vs saline controls (1 mg/kg days -1 to 20, day 6): 0.015
P, daily mucositis scores (Mann-Whitney rank sum) vs saline controls (1 mg/kg days -1 to 20, day 20): 0.029
P, daily mucositis scores (Mann-Whitney rank sum) vs saline controls (1 mg/kg days -1 to 20, day 22): 0.012
P, daily mucositis scores (Mann-Whitney rank sum) vs saline controls (1 mg/kg days -1 to 20, day 24): 0.001
P, daily mucositis scores (Mann-Whitney rank sum) vs saline controls (1 mg/kg days -1 to 20, day 26): 0.003
P, daily mucositis scores (Mann-Whitney rank sum) vs saline controls (1 mg/kg days -1 to 20, day 28): < 0.001
day of peak mean mucositis score (1 mg/kg from day -1 to day 20): 16
peak mean mucositis score (1 mg/kg from day -1 to day 20): 3.2
% Days >=3 (1 mg/kg): 30.8%
Days <3 (1 mg/kg): 166
Days >=3 (1 mg/kg): 74
Mucositis score, day 6 (Group 2 (SCV-07 10 μg/kg, day -1 to day 20), individual animal scores, two scores per animal, day 6): 0 (14×) and 1 (6×)
Mucositis score, day 8 (Group 2 (SCV-07 10 μg/kg, day -1 to day 20), individual animal scores, two scores per animal, day 8): 0 (18×) and 1 (2×)
severe mucositis, % of animals days evaluated (SCV-07 treated animals (all test groups), 50% in vehicle controls): approximately 30%
% of animal days with a mucositis score of 3 or higher [1]: 30.8%
P, chi-squared test vs controls, days with score of 3 or higher [1]: < 0.001
